Data on 19 compounds can be found in patent EP4417607A1, “HETEROCYCLIC COMPOUND AS SOS1 INHIBITOR AND USES THEREOF” (Nanjing Zaiming Pharmaceutical Co., Ltd., priority 2021, dated 2023).

One may read the IC50 as the concentration at which inhibition is half-maximal. A high value points to lower potency.

One assay relates to p-ERK pathway in H358 cells. In words: p-ERK pathway inhibition in H358 cells (Advanced phospho-ERK (Thr202/Tyr204) cellular kit, HTRF). In kind it is cell-based. To be noted: Homo sapiens, NCI-H358, 1 h compound incubation. How it is done: The effect of the compounds of the present invention on H358 cell p-ERK pathway was assessed by Advanced phospho-ERK (Thr202/Tyr204) cellular kit method.
The experimental procedures were summarized as follows: H358 cells (ATCC, CRL-5807) were cultured in RPMI1640 (ThermoFisher, A1049101) complete medium containing 10% FBS (Gibco, 10100147) and 100 U/mL penicillin-streptomycin mixed solution (Gibco, 15140163). When the coverage of the cells in the culture vessel reached 80-90%, the cells were pipetted and seeded in a 96-well plate (Corning, 3599) at 50000 cells/well (90 µL RPMI1640 complete medium), and the plate was left to stand for 5 min, cultured in an incubator at 37 °C with 5% CO2 for 6 h, replaced with a serum-free RPMI1640, and starved overnight.
After incubation overnight, 10 µL of a diluted test compound was added to each well using a multi-channel pipette, and the 96-well plate was cultured in an incubator at 37 °C with 5% CO2 for 1 h. The supernatant was poured. The cells were washed once with PBS. 50 µL of a lysis buffer (Advanced phospho-ERK (Thr202/Tyr204) cellular kit, 64AERPEH) was added to each well. The plate was shaken at room temperature at 450 rpm for 1 h. After the cells were completely lysed, 16 µL of the supernatant was added to a 384-well plate (PE, 6007299), mixed energy donor Eu and energy acceptor D2 (D2/Eu = 1:1) were added, and the plate was incubated at room temperature for 4 h. HTRF on the microplate reader was selected for plate reading, Ratio = Signal 665 nm/Signal 620 nm × 10^4. In this experiment, the cell-free group (replaced with 1640 medium) was used as the 100% inhibition group, and the compound-free group in which the cell was added was used as the 0% inhibition group.
The inhibition percentage of H358 cell p-ERK pathway by the compounds of the present invention could be calculated by the following formula: [formula]
(§1) IC50 values of the compounds were calculated from 8 concentration points using XLfit (ID Business Solutions Ltd., UK) software by the following formula: Y = Bottom + (Top−Bottom)/(1+10^(∧)((logIC50−X)×slopefactor)) [formula]
Y is the inhibition percentage, X is the logarithmic value of the concentration of the test compound, Bottom is the minimum inhibition percentage, Top is the maximum inhibition percentage, and slope factor is the slope coefficient of the curve. The default fitted curve was used to fit the slope of the S-shaped curve to determine the IC50 value. Table 2. Results of p-ERK inhibition test by the compounds of the present invention
Compound `COc1c(=O)n(C2(CF)CCN(C(C)=O)C2)cc2c(N[C@H](C)c3cccc(C(F)F)c3F)nc(C)nc12` (stereo partly drawn) [Example 8, 6-(1-acetyl-3-(fluoromethyl)pyrrolidin-3-yl)-4-(((R)-1-(3-(difluoromethyl)-2-fluorophenyl)ethyl)amino)-8-methoxy-2-methylpyrido[4,3-d]pyrimidine-7(6H)-one] displayed a half-inhibitory concentration (IC50) of 92.9 nM.
The same measure, in the same setting: next, `Cc1nc(N[C@H](C)c2cccc(C(F)F)c2F)c2cn(C3(CF)CC3)c(=O)c(C(F)(F)F)c2n1` [Example 2, (R)-4-((1-(3-(difluoromethyl)-2-fluorophenyl)ethyl)amino)-6-(1-(fluoromethyl)cyclopropyl)-2-methyl-8-(trifluoromethyl)pyrido[4,3-d]pyrimidine-7(6H)-one]: 127 nM; `Cc1nc(N[C@H](C)c2cccc(C(F)F)c2F)c2cn(C3(CF)CC3)c(=O)c(NC[C@@H]3CCO3)c2n1` [Example 105, 4-(((R)-1-(3-(difluoromethyl)-2-fluorophenyl)ethyl)amino)-6-(1-(fluoromethyl)cyclopropyl)-2-methyl-8-((((S)-oxetan-2-yl)methyl)amino)pyrido[4,3-d]pyrimidine-7(6H)-one]: 98.4 nM; `Cc1nc(N[C@H](C)c2cccc(C(F)F)c2F)c2cn(C3(CF)CC3)c(=O)c(-c3cnc4cnn(C)c4c3)c2n1` [Example 129, (R)-4-((1-(3-(difluoromethyl)-2-fluorophenyl)ethyl)amino)-6-(1-(fluoromethyl)cyclopropyl)-2-methyl-8-(1-methyl-1H-pyrazolo[4,3-b]pyridin-6-yl)pyrido[4,3-d]pyrimidine-7(6H)-one]: 127 nM.

Another assay relates to H358 cells. Briefly: H358 cell proliferation inhibition (CellTiter-Glo luminescent cell viability assay). In kind it is cell-based. The settings on record: 7 days. How it is done: The effect of the compounds of the present invention on H358 cell proliferation was assessed by CellTiter-Glo luminescent cell viability assay kit method.
H358 cells (ATCC, CRL-5807) were cultured in RPMI1640 (Hyclone, SH30256.01) complete medium containing 10% FBS (Gibco, 10100147) and 100 U/mL penicillin-streptomycin mixed solution (Gibco, 15140163). When the cells grew to 80-90%, the cells were digested, pipetted, and seeded in a 96-well plate (Corning, 4515) at 3000 cells/well (180 µL RPMI1640 complete medium), and then the 96-well plate was incubated overnight in an incubator at 37 °C with 5% CO2.
After incubation overnight, 20 µL of a diluted test compound was added to each well using a multi-channel pipette, and the 96-well plate was placed in an incubator at 37 °C with 5% CO2 for further culture. After 7 days, 100 µL of the supernatant was pipetted and discarded. 50 µL of CellTiter-Glo® 3D Cell Viability Assay liquid was added to each well. The plate was shaken at room temperature at 450 rpm for 30 min. After the cells were completely lysed, "Luminescence" on the microplate reader was selected for plate reading. In this experiment, the cell-free group (replaced with 1640 medium) was used as the 100% inhibition group, and the compound-free group in which the cell was added was used as the 0% inhibition group.
The inhibition percentage of H358 cell proliferation by the compounds of the present invention could be calculated by the following formula: [formula]
as §1
Y is the inhibition percentage, X is the logarithmic value of the concentration of the test compound, Bottom is the minimum inhibition percentage, Top is the maximum inhibition percentage, and slope factor is the slope coefficient of the curve.
Background: In ATP-based viability assays light output follows the ATP content of the culture.
“(R)-4-((1-(3-(difluoromethyl)-2-fluorophenyl)ethyl)amino)-8-ethoxy-6-(1-(fluoromethyl)cyclopropyl)-2-methylpyrido[4,3-d]pyrimidine-7(6H)-one [Example 10]” returned an IC50 of 41.6 nM.

The same assay, now with this note: Homo sapiens, NCI-H358, 168 h, 7 days.
Take `Cc1nc(N[C@H](C)c2cccc(C(F)F)c2F)c2cn(C3(CF)CC3)c(=O)c(OC(=O)N3CCN(C)CC3)c2n1` [Example 86, (R)-4-((1-(3-(difluoromethyl)-2-fluorophenyl)ethyl)amino)-6-(1-(fluoromethyl)cyclopropyl)-2-methyl-7-oxo-6,7-dihydropyrido[4,3-d]pyrimidin-8-yl-4-methylpiperazine-1-carboxylate]: 121 nM corresponded to half-maximal inhibition (IC50).
Same read-out and setting: next, `Cc1nc(N[C@H](C)c2cccc(C(F)F)c2F)c2cn(C3(CF)CC3)c(=O)c(N)c2n1` [Example 59, (R)-8-amino-4-((1-(3-(difluoromethyl)-2-fluorophenyl)ethyl)amino)-6-(1-(fluoromethyl)cyclopropyl)-2-methylpyrido[4,3-d]pyrimidine-7(6H)-one]: 162 nM; `Cc1nc(N[C@H](C)c2cccc(C(F)F)c2F)c2cn(C3(CF)CC3)c(=O)c(OCC3CC3)c2n1` [Example 35, (R)-8-(cyclopropylmethoxy)-4-((1-(3-(difluoromethyl)-2-fluorophenyl)ethyl)amino)-6-(1-(fluoromethyl)cyclopropyl)-2-methylpyrido[4,3-d]pyrimidine-7(6H)-one]: 154 nM; `Cc1nc(N[C@H](C)c2cccc(C#N)c2C)c2cn(N3CCOCC3)c(=O)c(-c3ccc(N4CCCC4)nc3)c2n1` [Example 89, (R)-2-methyl-3-(1-((2-methyl-6-morpholinyl-7-oxo-8-(6-(pyrrolidin-1-yl)pyridin-3-yl)-6,7-dihydropyrido[4,3-d]pyrimidin-4-yl)amino)ethyl)benzonitrile]: 134 nM.
Still for that read-out and setting: next, `Cc1nc(N[C@H](C)c2cccc(C#N)c2C)c2cn(C3(CF)CC3)c(=O)c(-c3ccc(C#N)nc3)c2n1` [Example 67, (R)-5-(4-((1-(3-cyano-2-methylphenyl)ethyl)amino)-6-(1-(fluoromethyl)cyclopropyl)-2-methyl-7-oxo-6,7-dihydropyrido[4,3-d]pyrimidin-8-yl)pyridinecarbonitrile]: 118 nM.
The same measure, in the same setting: as for `Cc1nc(N[C@H](C)c2cccc(C(F)F)c2F)c2cn(N3CCOCC3)c(=O)c(Oc3ccnc(C#N)c3)c2n1` [Example 118, (R)-4-((4-((1-(3-(difluoromethyl)-2-fluorophenyl)ethyl)amino)-2-methyl-6-morpholino-7-oxo-6,7-dihydropyrido[4,3-d]pyrimidin-8-yl)oxy)pyridinecarbonitrile], the figure is 136 nM; as for `Cc1nc(N[C@H](C)c2cccc(C(F)F)c2F)c2cn(C3(CF)CC3)c(=O)c(Oc3cnn(C)c3)c2n1` [Example 60, (R)-4-((1-(3-(difluoromethyl)-2-fluorophenyl)ethyl)amino)-6-(1-(fluoromethyl)cyclopropyl)-2-methyl-8-((1-methyl-1H-pyrazol-4-yl)oxy)pyrido[4,3-d)pyrimidine-7(6H)-one], 162 nM; as for `COc1c(=O)n(C2(CF)CC2)cc2c(N[C@H](C)c3cccc(C#N)c3C)nc(C)nc12` [Example 3, (R)-3-(1-((6-(1-(fluoromethyl)cyclopropyl)-8-methoxy-2-methyl-7-oxo-6,7-dihydropyrido[4,3-d]pyrimidin-4-yl)amino)ethyl)-2-methylbenzonitrile], 61.4 nM.
In turn, `COc1c(=O)n(C2(C)CCN(C(C)=O)C2)cc2c(N[C@H](C)c3cccc(C(F)F)c3F)nc(C)nc12` (stereo partly drawn) [Example 7, 6-(1-acetyl-3-methylpyrrolidin-3-yl)-4-(((R)-1-(3-(difluoromethyl)-2-fluorophenyl)ethyl)amino)-8-methoxy-2-methylpyrido[4,3-d]pyrimidine-7(6H)-one] had an IC50 of 74.7 nM.
The same measure, in the same setting: next, `Cc1nc(N[C@H](C)c2cccc(C(F)F)c2F)c2cn(C3(CF)CC3)c(=O)c(N3CCC4(COC4)C3)c2n1` [Example 154]: 116 nM.
The same measure, in the same setting: as for `Cc1nc(N[C@H](C)c2cccc(C#N)c2C)c2cn(N3CCOCC3)c(=O)c(-c3ccc(C#N)nc3)c2n1` [Example 64, (R)-5-(4-((1-(3-cyano-2-methylphenyl)ethyl)amino)-2-methyl-6-morpholine-7-oxo-6,7-dihydropyrido[4,3-d]pyrimidin-8-yl)pyridinecarbonitrile], the figure is 40.7 nM; as for `Cc1nc(N[C@H](C)c2cccc(C#N)c2C)c2cn(C3(CF)CC3)c(=O)c(N3CCN(C)CC3)c2n1` [Example 74, (R)-3-(1-((6-(1-(fluoromethyl)cyclopropyl)-2-methyl-8-(4-methylpiperazin-1-yl)-7-oxo-6,7-dihydropyrido[4,3-d]pyrimidin-4-yl)amino)ethyl)-2-methylbenzonitrile], 84.7 nM; as for `Cc1nc(N[C@H](C)c2cccc(C(F)F)c2F)c2cn(C3(CF)CC3)c(=O)c(N3CCN(C4COC4)CC34CC4)c2n1` [Example 146, (R)-4-((1-(3-(difluoromethyl)-2-fluorophenyl)ethyl)amino)-6-(1-(fluoromethyl)cyclopropyl)-2-methyl-8-(7-(oxetan-3-yl)-4,7-diazaspiro [2.5]octan-4-yl)pyrido [4,3-d]pyrimidine-7(6H)-one], 69.9 nM.
In the case of `Cc1nc(N[C@H](C)c2cccc(C(F)F)c2F)c2cn(C3(CF)CC3)c(=O)c(NC(=O)c3ccccn3)c2n1` [Example 157], inhibition was half-maximal at 84.8 nM (IC50).
